The source of these data is paper PMC12472637, “Use of TLC and Computational Methods to Determine Lipophilicity Parameters of Selected Neuroleptics: Comparison of Experimental and Theoretical Studies” (Pharmaceuticals, 2025).

Details of data set [1]: method as in earlier work. The conditions noted are these: logP in n-octanol-water, DrugBank; cited from earlier work.
The nature of data set [2]: RP-TLC chromatographic parameter of lipophilicity (RMW), Soczewiński–Wachtmeister extrapolation. Type of data set: physicochemical. More on the design: key: RM = log((1−Rf)/Rf), extrapolated via Soczewiński–Wachtmeister equation. The text has this: As part of the continuation of this study, we attempted to use the experimental, i.e., chromatographic method to determine the lipophilicity parameter of five commercially available neuroleptics: fluphenazine, triflupromazine, trifluoperazine, flupentixol and zuclopenthixol. As described in the Materials and Methods Section, we successfully applied thin-layer chromatography in a reverse-phase system (RP-TLC) and various systems containing chromatographic plates: RP-2F254, RP-8F254 and RP-18F254. […] The chromatographic parameter of lipophilicity RMW obtained under these conditions, using Soczewiński-Wachtmeister's equation, is presented in Table 5. […] Sufficient linearity of these relationships was confirmed by a high correlation coefficient (r), significant p-values, a low standard error of estimate and a high Fisher F-distribution value. […] The content of organic modifier varied from 40% to 90% in 5% increments. Five microliters of each sample solution was spotted as separate spots with a 5 mm width. Plates were developed at ambient temperature (20 ± 2 °C) to a distance of 70 mm in a horizontal chamber ([…], Switzerland) and then visualized under UV light (λ = 254 nm). All measurements were performed in triplicate. The mean value of the retardation factor (Rf) of each compound was used to calculate the RM values:(1) […] The characteristic of the obtained linear plots are given in the Supplementary Materials as Tables S2-S6.

[3] abbreviates: RP-2F254 plates, 1,4-dioxane–TRIS buffer (pH 7.4).
Where [4] appears, read: RP-2F254 plates, acetone–TRIS buffer (pH 7.4).
The mark [5] stands for this setting: RP-2F254 plates, acetonitrile–TRIS buffer (pH 7.4).
Setting [6] is: RP-8F254 plates, 1,4-dioxane–TRIS buffer (pH 7.4).
The mark [7] stands for this setting: RP-8F254 plates, acetone–TRIS buffer (pH 7.4).
The mark [8] stands for this setting: RP-8F254 plates, acetonitrile–TRIS buffer (pH 7.4).
Where [9] appears, read: RP-18F254 plates, 1,4-dioxane–TRIS buffer (pH 7.4).
The mark [10] stands for this setting: RP-18F254 plates, acetone–TRIS buffer (pH 7.4).
Where [11] appears, read: RP-18F254 plates, acetonitrile–TRIS buffer (pH 7.4).

Consider `OCCN1CCN(CCCN2c3ccccc3Sc3ccc(C(F)(F)F)cc32)CC1` [Fluphenazine, fluphenazine], for which the logPexp in data set [1] is given as 4.36. Moreover, the RMW in data set [2] (setting [3]) is on record as 2.653; in data set [2] (RP-2F254 plates, 1,4-dioxane–TRIS buffer (pH 7.4), listed as fluphenazine), 2.653±0.058; in data set [2] (setting [4]), 2.834; in data set [2] (RP-2F254 plates, acetone–TRIS buffer (pH 7.4), listed as fluphenazine), 2.834±0.219; in data set [2] (setting [5]) it was −0.777; in data set [2] (RP-2F254 plates, acetonitrile–TRIS buffer (pH 7.4), listed as fluphenazine) it was -0.777±0.074. Further, the RMW in data set [2] (setting [6]) is listed as 2.340; in data set [2] (RP-8F254 plates, 1,4-dioxane–TRIS buffer (pH 7.4), listed as fluphenazine), 2.340±0.230; in data set [2] (setting [7]), 2.591; in data set [2] (RP-8F254 plates, acetone–TRIS buffer (pH 7.4), listed as fluphenazine) it was 2.591±0.210; in data set [2] (setting [8]), −1.230; in data set [2] (RP-8F254 plates, acetonitrile–TRIS buffer (pH 7.4), listed as fluphenazine), -1.230±0.164. Also, the RMW is 2.454 in data set [2] (setting [9]); 2.454±0.279 in data set [2] (RP-18F254 plates, 1,4-dioxane–TRIS buffer (pH 7.4), listed as fluphenazine); 2.702 in data set [2] (setting [10]); 2.702±0.189 in data set [2] (RP-18F254 plates, acetone–TRIS buffer (pH 7.4), listed as fluphenazine); −0.995 in data set [2] (setting [11]); -0.995±0.098 in data set [2] (RP-18F254 plates, acetonitrile–TRIS buffer (pH 7.4), listed as fluphenazine).
Take `OCCN1CCN(CC/C=C2/c3ccccc3Sc3ccc(C(F)(F)F)cc32)CC1` [Flupentixol, flupentixol]: the logPexp in data set [1] is given as 4.51. Further, the RMW in data set [2] (setting [3]) was 2.782; in data set [2] (RP-2F254 plates, 1,4-dioxane–TRIS buffer (pH 7.4), listed as flupentixol), 2.782±0.094; in data set [2] (setting [4]), 2.829; in data set [2] (RP-2F254 plates, acetone–TRIS buffer (pH 7.4), listed as flupentixol), 2.829±0.194; in data set [2] (setting [5]), −0.427; in data set [2] (RP-2F254 plates, acetonitrile–TRIS buffer (pH 7.4), listed as flupentixol), -0.427±0.153. Also, the RMW in data set [2] (setting [6]) is on record as 2.363; in data set [2] (RP-8F254 plates, 1,4-dioxane–TRIS buffer (pH 7.4), listed as flupentixol), 2.363±0.214; in data set [2] (setting [7]), 2.702; in data set [2] (RP-8F254 plates, acetone–TRIS buffer (pH 7.4), listed as flupentixol) it was 2.702±0.228; in data set [2] (setting [8]) it was −1.165; in data set [2] (RP-8F254 plates, acetonitrile–TRIS buffer (pH 7.4), listed as flupentixol), -1.165±0.108. The RMW in data set [2] (setting [9]) is 2.468; in data set [2] (RP-18F254 plates, 1,4-dioxane–TRIS buffer (pH 7.4), listed as flupentixol), 2.468±0.246; in data set [2] (setting [10]), 2.762; in data set [2] (RP-18F254 plates, acetone–TRIS buffer (pH 7.4), listed as flupentixol), 2.762±0.175; in data set [2] (setting [11]), −1.058; in data set [2] (RP-18F254 plates, acetonitrile–TRIS buffer (pH 7.4), listed as flupentixol), -1.058±0.077.
For the compound `CN1CCN(CCCN2c3ccccc3Sc3ccc(C(F)(F)F)cc32)CC1` [Trifluoperazine, trifluoperazine], the logPexp in data set [1] is 5.03. The RMW in data set [2] (setting [3]) is 3.333; in data set [2] (RP-2F254 plates, 1,4-dioxane–TRIS buffer (pH 7.4), listed as trifluoperazine), 3.333±0.328; in data set [2] (setting [4]), 3.348; in data set [2] (RP-2F254 plates, acetone–TRIS buffer (pH 7.4), listed as trifluoperazine), 3.348±0.250; in data set [2] (setting [5]), −0.568; in data set [2] (RP-2F254 plates, acetonitrile–TRIS buffer (pH 7.4), listed as trifluoperazine) it was -0.568±0.088. In addition, the RMW in data set [2] (setting [6]) is 2.547; in data set [2] (RP-8F254 plates, 1,4-dioxane–TRIS buffer (pH 7.4), listed as trifluoperazine), 2.547±0.277; in data set [2] (setting [7]), 2.754; in data set [2] (RP-8F254 plates, acetone–TRIS buffer (pH 7.4), listed as trifluoperazine) it was 2.754±0.209; in data set [2] (setting [8]) it was −1.023; in data set [2] (RP-8F254 plates, acetonitrile–TRIS buffer (pH 7.4), listed as trifluoperazine), -1.023±0.082. Besides, the RMW in data set [2] (setting [9]) is 2.580; in data set [2] (RP-18F254 plates, 1,4-dioxane–TRIS buffer (pH 7.4), listed as trifluoperazine), 2.580±0.271; in data set [2] (setting [10]), 2.714; in data set [2] (RP-18F254 plates, acetone–TRIS buffer (pH 7.4), listed as trifluoperazine) it was 2.714±0.200; in data set [2] (setting [11]), −0.810; in data set [2] (RP-18F254 plates, acetonitrile–TRIS buffer (pH 7.4), listed as trifluoperazine) it was -0.810±0.074.
Consider `OCCN1CCN(CC/C=C2/c3ccccc3Sc3ccc(Cl)cc32)CC1` [Zuclopenthixol, zuclopenthixol], for which the RMW in data set [2] (setting [3]) is 2.459; in data set [2] (RP-2F254 plates, 1,4-dioxane–TRIS buffer (pH 7.4), listed as zuclopenthixol) it was 2.459±0.130; in data set [2] (setting [4]), 2.529; in data set [2] (RP-2F254 plates, acetone–TRIS buffer (pH 7.4), listed as zuclopenthixol), 2.529±0.252; in data set [2] (setting [5]), 0.582±0.089; in data set [2] (setting [6]), 1.981. In addition, the RMW in data set [2] (RP-8F254 plates, 1,4-dioxane–TRIS buffer (pH 7.4), listed as zuclopenthixol) was 1.981±0.189; in data set [2] (setting [7]), 2.206; in data set [2] (RP-8F254 plates, acetone–TRIS buffer (pH 7.4), listed as zuclopenthixol), 2.206±0.207; in data set [2] (setting [8]) it was −1.206; in data set [2] (RP-8F254 plates, acetonitrile–TRIS buffer (pH 7.4), listed as zuclopenthixol), -1.206±0.139; in data set [2] (setting [9]) it was 2.110. In addition, the RMW in data set [2] (RP-18F254 plates, 1,4-dioxane–TRIS buffer (pH 7.4), listed as zuclopenthixol) is 2.110±0.176; in data set [2] (setting [10]), 2.218; in data set [2] (RP-18F254 plates, acetone–TRIS buffer (pH 7.4), listed as zuclopenthixol), 2.218±0.238; in data set [2] (setting [11]), 2.411; in data set [2] (RP-18F254 plates, acetonitrile–TRIS buffer (pH 7.4), listed as zuclopenthixol), 2.411±0.454.
For `CN(C)CCCN1c2ccccc2Sc2ccc(C(F)(F)F)cc21` [Triflupromazine, triflupromazine], the RMW in data set [2] (setting [3]) is given as 2.890; in data set [2] (RP-2F254 plates, 1,4-dioxane–TRIS buffer (pH 7.4), listed as triflupromazine) it was 2.890±0.232; in data set [2] (setting [4]) it was 3.046; in data set [2] (RP-2F254 plates, acetone–TRIS buffer (pH 7.4), listed as triflupromazine), 3.046±0.271; in data set [2] (setting [5]), −0.405; in data set [2] (RP-2F254 plates, acetonitrile–TRIS buffer (pH 7.4), listed as triflupromazine) it was -0.405±0.166. Moreover, the RMW in data set [2] (setting [6]) was 2.153; in data set [2] (RP-8F254 plates, 1,4-dioxane–TRIS buffer (pH 7.4), listed as triflupromazine), 2.153±0.213; in data set [2] (setting [7]), 2.690; in data set [2] (RP-8F254 plates, acetone–TRIS buffer (pH 7.4), listed as triflupromazine), 2.690±0.232; in data set [2] (setting [8]), −0.334; in data set [2] (RP-8F254 plates, acetonitrile–TRIS buffer (pH 7.4), listed as triflupromazine) it was -0.334±0.019. Besides, the RMW is reported as 2.342 in data set [2] (setting [9]); 2.342±0.261 in data set [2] (RP-18F254 plates, 1,4-dioxane–TRIS buffer (pH 7.4), listed as triflupromazine); 2.718 in data set [2] (setting [10]); 2.718±0.168 in data set [2] (RP-18F254 plates, acetone–TRIS buffer (pH 7.4), listed as triflupromazine); −0.361 in data set [2] (setting [11]); -0.361±0.084 in data set [2] (RP-18F254 plates, acetonitrile–TRIS buffer (pH 7.4), listed as triflupromazine).
